Our source for the IC50 values is ChEMBL document CHEMBL5120957, “SARS-CoV-2: Novel Therapeutic Approaches for Diagnosis and Treatment” (ACS Med Chem Lett, 2022).

The target in this assay is Integrin alpha-V/beta-6 (Homo sapiens, UniProt P06756+P18564). The assay can be described thus: Inhibition of recombinant human alphavbeta6 integrin incubated for 2 hrs by microplate reader assay. It counts as protein-complex assay.
Integrin alpha-V/beta-6, sequence (P06756 31-889 limits assumed): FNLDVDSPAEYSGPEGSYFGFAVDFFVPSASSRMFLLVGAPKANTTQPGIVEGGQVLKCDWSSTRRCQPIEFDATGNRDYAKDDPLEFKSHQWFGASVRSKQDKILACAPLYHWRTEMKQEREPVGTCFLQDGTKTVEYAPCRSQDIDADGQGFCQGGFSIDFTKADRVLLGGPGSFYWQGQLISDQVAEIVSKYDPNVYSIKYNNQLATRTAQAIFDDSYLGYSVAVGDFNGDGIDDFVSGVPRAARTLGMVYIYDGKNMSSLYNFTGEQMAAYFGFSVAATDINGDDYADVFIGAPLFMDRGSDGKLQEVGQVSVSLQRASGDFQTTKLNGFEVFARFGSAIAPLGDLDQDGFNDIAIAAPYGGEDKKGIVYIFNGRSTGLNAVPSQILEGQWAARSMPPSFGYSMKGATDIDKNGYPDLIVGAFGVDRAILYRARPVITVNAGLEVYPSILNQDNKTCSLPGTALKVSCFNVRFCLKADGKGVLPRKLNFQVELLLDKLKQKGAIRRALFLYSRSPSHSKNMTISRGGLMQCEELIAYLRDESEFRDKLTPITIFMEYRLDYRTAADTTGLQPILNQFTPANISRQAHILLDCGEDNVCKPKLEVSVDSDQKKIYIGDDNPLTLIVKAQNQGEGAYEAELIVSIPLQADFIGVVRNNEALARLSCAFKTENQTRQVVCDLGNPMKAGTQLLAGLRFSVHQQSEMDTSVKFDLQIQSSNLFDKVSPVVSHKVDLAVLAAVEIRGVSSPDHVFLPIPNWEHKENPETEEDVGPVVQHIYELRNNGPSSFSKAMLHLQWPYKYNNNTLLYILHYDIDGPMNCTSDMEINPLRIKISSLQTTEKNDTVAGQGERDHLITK
Integrin alpha-V/beta-6, sequence (P06756 891-1048 limits assumed): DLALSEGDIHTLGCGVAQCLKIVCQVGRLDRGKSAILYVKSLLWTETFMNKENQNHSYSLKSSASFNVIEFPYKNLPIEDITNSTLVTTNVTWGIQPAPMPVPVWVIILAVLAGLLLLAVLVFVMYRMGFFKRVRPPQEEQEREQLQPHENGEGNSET
Integrin alpha-V/beta-6, sequence (P18564 22-788 limits assumed): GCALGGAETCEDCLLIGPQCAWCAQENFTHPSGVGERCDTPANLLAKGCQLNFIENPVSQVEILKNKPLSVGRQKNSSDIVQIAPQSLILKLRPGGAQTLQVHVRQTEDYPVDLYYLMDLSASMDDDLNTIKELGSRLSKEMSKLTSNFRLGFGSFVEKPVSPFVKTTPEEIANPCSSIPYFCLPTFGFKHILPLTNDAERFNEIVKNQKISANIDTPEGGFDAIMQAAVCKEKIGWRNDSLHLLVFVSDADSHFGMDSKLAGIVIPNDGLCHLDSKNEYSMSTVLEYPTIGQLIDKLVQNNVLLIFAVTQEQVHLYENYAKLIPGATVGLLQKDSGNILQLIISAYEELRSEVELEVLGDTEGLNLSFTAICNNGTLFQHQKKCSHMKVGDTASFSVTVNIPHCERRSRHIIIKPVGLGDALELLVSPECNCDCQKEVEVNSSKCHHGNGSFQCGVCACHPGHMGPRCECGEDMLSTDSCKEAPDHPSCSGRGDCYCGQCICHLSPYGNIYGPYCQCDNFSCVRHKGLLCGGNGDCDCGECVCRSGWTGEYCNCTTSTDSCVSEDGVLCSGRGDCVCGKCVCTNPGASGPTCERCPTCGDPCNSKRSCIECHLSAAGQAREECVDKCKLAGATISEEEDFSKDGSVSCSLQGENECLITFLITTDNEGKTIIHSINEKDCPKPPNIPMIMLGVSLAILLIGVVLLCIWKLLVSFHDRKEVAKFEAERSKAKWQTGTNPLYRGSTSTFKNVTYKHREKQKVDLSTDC
For the molecule `COCCN(CCCCc1ccc2c(n1)NCCC2)CC[C@H](Nc1cc(-n2cccn2)ncn1)C(=O)O`, the half-maximal inhibitory concentration (IC50) was under 50 nM. In the case of `COCCN(CCCCc1ccc2c(n1)NCCC2)CC[C@H](Nc1ncnc2cc(F)ccc12)C(=O)O`, the IC50 was under 50 nM.

For the molecule `COCCN(CCCCc1ccc2c(n1)NCCC2)CC[C@H](Nc1ncnc2ccccc12)C(=O)O` [BEXOTEGRAST], the half-inhibitory concentration (IC50) was under 50 nM. For `CO[C@H](C)CN(CCCCc1ccc2c(n1)NCCC2)CC[C@H](Nc1ncnc2ccccc12)C(=O)O` the value was under 50 nM; for `COCCN(CCCCc1ccc2c(n1)NCCC2)CC[C@H](Nc1ncnc2cc(C(F)(F)F)ccc12)C(=O)O`, 50 nM; for `O=C(O)[C@H](CCN(CCCCc1ccc2c(n1)NCCC2)CCC(F)F)Nc1ncnc2ccccc12`, under 50 nM.
